Counter-ions that a name gives are not always drawn. Blank lines part the entries; values can stand above or below the compound they belong to.
What was measured:
TXA2 synthase = target: T1, TXA2 synthase (Homo sapiens, UniProt P24557); experiment: Thromboxane synthase inhibition, in vitro; assay type: biochemical; conditions: at 10^-7M; microsomal fractions from human platelets; read-out: TXA2Synthase Inhibition (% at 10^-7M)
T1 construct: using microsomal fractions from human platelets as enzyme source; from tissue; host or cells: human platelets (microsomal fraction)
T1 sequence (P24557 1-533): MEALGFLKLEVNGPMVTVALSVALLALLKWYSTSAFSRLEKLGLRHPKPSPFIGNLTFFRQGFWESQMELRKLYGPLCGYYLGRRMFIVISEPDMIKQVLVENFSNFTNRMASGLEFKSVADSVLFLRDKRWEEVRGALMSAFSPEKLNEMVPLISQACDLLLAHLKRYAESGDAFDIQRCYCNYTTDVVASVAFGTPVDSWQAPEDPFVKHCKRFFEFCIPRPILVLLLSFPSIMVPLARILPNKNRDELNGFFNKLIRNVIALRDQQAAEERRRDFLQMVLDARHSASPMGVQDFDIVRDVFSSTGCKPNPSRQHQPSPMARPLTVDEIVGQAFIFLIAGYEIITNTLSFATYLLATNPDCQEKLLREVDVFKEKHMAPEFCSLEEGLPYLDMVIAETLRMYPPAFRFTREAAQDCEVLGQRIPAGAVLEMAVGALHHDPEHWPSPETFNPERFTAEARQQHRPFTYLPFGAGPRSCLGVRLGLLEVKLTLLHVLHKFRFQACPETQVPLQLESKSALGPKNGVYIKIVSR
Method: TXA2 synthase activity is measured by following the conversion of ^14C-prostaglandin endoperoxide (PGH2) to ^14C-thromboxane A2 (TXA2) using microsomal fractions from human platelets as enzyme source. In the aqueous incubation medium, the TXA2 decomposes rapidly into TXB2. The amount of TXA2 synthase is adjusted so that under the conditions of the assay approximately 80-90% of the substrate, PGH2, is converted to product in control tubes. To prepare ^14C-PGH2, ^14C-AA (50-60 mCi/mmole: Rose Chem.) is incubated with sheep seminal vesicular gland microsomes for 1.5 minutes at 37°C and then the ^14C-PGH2 is extracted with diethylether, purified on columns of Sephadex LH-20 or silicic acid, and stored in acetone at -70°C. Incubations are done as follows. Sufficient ^14C-PGH2 to yield a final substrate concentration of 10 µM (30,000 cpm) is added to the incubation tubes and then the acetone is removed under nitrogen. The tubes are placed in an ice bath and then 215 1 of ice cold phosphate buffered saline, 10 1 of ethanol (control) or of test drug in ethanol, and 25 1 of the microsomal suspension are added with mixing in that order as rapidly as possible. The tubes are incubated at 22°C for 2 minutes, the reaction is stopped and then the radioactive products and the uncoverted PGH2 are extracted and analyzed by thin layer chromatography. […] The amount of ^14C-PGH2 converted to products was used as a measure of TXA2 synthase activity. Inhibitors were tested initially at a final concentration of 100 µM. Results obtained with representative compounds of the present invention in this assay are summarized hereafter in Table I.

[1] = test system: vascular permeability in rat skin; experiment: Rat skin permeability, in vivo (LTE4-induced skin wheal); parameters: species or system rats; conditions: for Rat Skin Permeability % Inhibition (10mg/kg iv): Table II, LTE4 wheal; for reduction in the skin wheal size: 10 mg/kg i.v.
Method: In this model the ability of LTE4 to increase vascular permeability in rat skin was utilized. Anesthetized rats, pretreated for 30 minutes with an antihistamine pyrilamine maleate, 50 mg/kg i.p. and a serotonin antagonist, methyl- […] maleate (4 mg/kg i.p.), were injected intradermally with a standard dose of LTE4 which gave a maximum wheal (in 0.05 ml saline). After introduction of test drug (at 10 mg/kg i.v.) the animals were immediately treated intravenously with Evans blue dye i.v. (0.5%) in the tail vein resulting in the formation of a skin wheal. Thirty minutes later the animals were sacrificed and the skin wheal size was measured. The average response in 5 animals (4 intradermal injections per animal) treated with test compound was compared to that obtained in a similar group of control animals to determine the percent inhibition by the drug.

[2] = test system: Guinea Pig Bronchoconstriction; experiment: Guinea pig bronchoconstriction, in vivo (leukotriene E4 challenge); parameters: species or system guinea pigs; conditions: for Guinea Pig Broncho-constriction % Inhibition (10 mg/kg i.v.): Table II; for Guinea Pig Broncho-constriction % Inhibition (10 mg/kg i.v.) / inhibition: leukotriene E4 challenge; for inhibition: 10 mg/kg, i.v.; for oral activity: orally 100 mg/kg, 2 hours prior to challenge with leukotriene E4
Method: Male guinea pigs (Hostley strain) weighing 300 to 450 grams are anesthetized with urethane (2 g/kg) intraperitoneally and a polyethylene cannula is inserted into the jugular vein for intravenous drug administration. Tracheal pressure is recorded from a cannula inserted in the trachea and connected to a Statham pressure transducer. Respiration is paralyzed with succinyl choline (1.2 mg/kg, i.v.) and the animals are mechanically respirated (Howard rodent respirator) at 40 breaths/minute and 2.5 ml tidal volume. Two minutes thereafter, propranolol (0.1 mg/kg, i.v.) is administered. Five minutes later, the animals are pretreated intravenously for 30 seconds (at 10 mg/kg) with test drug or control vehicle. The animals are subsequently challenged with a maximally constrictory dose of leukotriene E4 also administered intravenously. The change (cm H20) between pre and peak ventilatory pressure readings is averaged for three control animals and five drug treated animals. The percent inhibition is calculated from the following formula: [formula]
For determination of oral activity spontaneously breathing animals are pretreated orally with drugs (100 mg/kg) for 2 hours (at 100 mg/kg) prior to challenge with leukotriene E4. […] When tested orally in this assay the two compounds of the invention were active. Results obtained with representative compounds of the present invention in this assay are summarized hereafter in Table II.

[3] = test system: Rat Passive Cutaneous Anaphylaxis; experiment: Passive cutaneous anaphylaxis (PCA) assay; assay type: in vivo, rats; conditions: for ED50: Rattus norvegicus, po, doses administered orally, read-out: Rat PCA Test ID50
Method: Male Sprague-Dawley rats obtained from Charles River Breeding Laboratories were used in the PCA assay. Two methods were used to prepare serum IgE antibody which is specific for egg albumin. In the first method homocytotropic antibody was obtained by injecting 180 to 200 g rats with 1.0 mg of egg albumin (Difco Laboratories, Detroit, Michigan) intramuscularly and 6.4 x 10^10 organisms of Bordetella pertussis vaccine (Eli Lilly and Co., Indiana- polis, Ind.) intraperitoneally. Serum collected from each animal 18-20 days after sensitization was pooled, separated into 1 ml aliquots, and kept frozen until further use. In the second method, rats weighing 150-200 g were immunized by the intraperitoneal injection of 0.5 ml of Bordetella pertussis vaccine (Cannaught Laboratories, Willowdale, Toronto, Canada, 20 optical units/ml) and 100 μg of egg albumin (Nutritional Biochemicals Corp., Cleveland. Ohio). Sixteen days later, Nipostrongylus brasi- […] (3000 larvae/0.1 ml) was administered subcutaneously, and on the 21st day, 10 μg of egg albumin in 0.5 ml of normal saline was administered intraperitoneally. On the 30th day, blood samples were collected by heart puncture; the serum was separated by centrifugation and refrigerated overnight at 5°C. After a 24 hour period, the samples were assayed for antibody activity by the passive cutaneous anaphylaxis method. Those serum samples which produced an average wheal diameter of 3 mm or greater following an intradermal injection of 0.05 ml of a 1:50 dilution of serum in normal saline were pooled, divided into aliquots, and kept frozen until further use. […] The passive cutaneous anaphylaxis assay was carried out in rats weighing 190-220 g in a manner similar to that of Goose and Blair (J. Goose and A.M.J.N. Blair, Immunology, 16, 749 [1969]). Rat IgE antiovalbumin in serum was prepared as described above. The IgE antiserum was titered with normal saline so that injections of 0.05 ml produced skin wheal diameters which averaged 7 to 10 mm. After a 24 hour sensitization period, 1 ml of an aqueous solution containing a mixture of 8 mg of egg albumin (Nutritional Biochemical Corp.. Cleveland, Ohio) and 5 mg of Evans blue dye ([…] Chemical Co., Inc., Harriman, N.Y.) was administered intravenously to each rat. Forty minutes after challenge, each animal was sacrificed by cervical dislocation, and the dorsal skin was removed for examination. The long and short axes of the blued area were measured on the inner surface of the skin with a metric vernier caliper (VWR Scientific Division of Univar, Rochester, N.Y.), and the average diameter was determined for each reaction. […] The procedure was usually conducted on five animals in the control and each of the treatment groups. Statistical analysis of the test results was conduced by the Student's t test of control vs. various treatments. The ID50 and 95% limits were determined by a modification of the Berkson minimum logic chi square method (J. Berkson, J. Am. Stat. Assoc., 48, 565 [1953]).

[4] = test system: vascular permeability in rat skin; experiment: Rat skin permeability, in vivo (LTE4-induced skin wheal); parameters: species or system rats; conditions: for oral activity: tested orally

- inhibition at 0.1 µM (TXA2 synthase): 36%
SMILES: CC(C)c1ccc2nc3sc(C(=O)NCCCCCCc4cccnc4)cn3c(=O)c2c1

SMILES: CC(C)c1ccc2nc3sc(C(=O)N(C)CCCCc4cccnc4)cn3c(=O)c2c1
- Rat Skin Permeability % Inhibition (10mg/kg iv) [1]: 72%
- Guinea Pig Broncho-constriction % Inhibition (10 mg/kg i.v.) [2]: Inactive

- inhibition at 0.1 µM (TXA2 synthase): 30%
SMILES: CC(C)c1ccc2nc3sc(C(=O)NCCCCOc4cccnc4)cn3c(=O)c2c1

SMILES: CCC(C)c1ccc2nc3sc(C(=O)NCCN(CC)CC)cn3c(=O)c2c1 (stereo not shown)
- Rat PCA Test (% Inhibition) 16 mg/kg ip [3]: 21%

SMILES: CCN(CC)CCOC(=O)c1cn2c(=O)c3cc(OC)ccc3nc2s1
- Rat PCA Test (% Inhibition) 16 mg/kg ip [3]: 100%
- Rat PCA Test (% Inhibition) 32 mg/kg po [3]: 100%
- ED50 [3]: 1.31 mg/kg

SMILES: CCN(CC)CCNC(=O)c1cn2c(=O)c3cc(C(C)C)ccc3nc2s1
- Rat PCA Test (% Inhibition) 32 mg/kg po [3]: 50%

SMILES: CCN(CC)CCNC(=O)c1cn2c(=O)c3cc(CC(C)C)ccc3nc2s1
- Rat PCA Test (% Inhibition) 16 mg/kg ip [3]: 31%

SMILES: CCN(CC)CCNC(=O)c1cn2c(=O)c3cc(C(C)C)cc(C(C)C)c3nc2s1 [7,9-Bis(1-methylethyl)-N-[2-(diethylamino)ethyl] -5-oxo-5H--thiazolo[2,3-b]quinazoline-2-carboxamide hydrochloride]
- Rat PCA Test (% Inhibition) 16 mg/kg ip [3]: 31%
- Rat PCA Test (% Inhibition) 32 mg/kg po [3]: 27%

SMILES: CCN(CC)CCOC(=O)c1cn2c(=O)c3cc(C(C)C)ccc3nc2s1 [7-(1-Methylethyl)-5-oxo-5H-thiazolo[2,3-b]quinazoline-2-carboxylic acid(2-diethylaminoethyl) ester hydrochloride]
- Rat PCA Test (% Inhibition) 16 mg/kg ip [3]: 100%
- Rat PCA Test (% Inhibition) 32 mg/kg po [3]: 100%
- ED50 [3]: 0.45 mg/kg

SMILES: CCCc1c(OCC(O)COc2ccc3c(=O)cc(C(=O)O)oc3c2CCC)ccc(C(C)=O)c1O (stereo not drawn) [7-[3-(4-acetyl-3-hydroxy-2-propylphenoxy) -2-hydroxypropoxy]-4-oxo-8-propyl-4H-l-benzopyran-2-carboxylic acid, reference compound]
- reduction in the skin wheal size [1]: 88%
- oral activity [4]: inactive
- inhibition [2]: 98%
- oral activity [2]: inactive

SMILES: CC(C)c1ccc2nc3sc(C(=O)NCCCCc4cccnc4)cn3c(=O)c2c1 [Example 3, 7-(1-Methylethyl)-5-oxo-N-[4-(3-pyridinyl)butyl]-5H-thiazolo[2,3-b]quinazoline-2-carboxamide]
- reduction in the skin wheal size [1]: 35%
- Rat Skin Permeability % Inhibition (10mg/kg iv) [1]: 35%
- oral activity [4]: active
- inhibition [2]: 68%
- Guinea Pig Broncho-constriction % Inhibition (10 mg/kg i.v.) [2]: 68%
- oral activity [2]: active

SMILES: CC(C)c1ccc2nc3sc(C(=O)NCCCCn4ccnc4)cn3c(=O)c2c1 [Example 6, N-[4-(1H-Imidazol-1-yl)butyl]-7-(1-methylethyl)-5-oxo-5H-thiazolo[2,3-b]quinazoline-2-carboxamide dihydrochloride 0.45 molar hydrate]
- reduction in the skin wheal size [1]: 61%
- Rat Skin Permeability % Inhibition (10mg/kg iv) [1]: 61%
- Rat Skin Permeability ID50 ([4]; iv): 10 mg/kg
- Rat Skin Permeability ID50 ([4]; po): 55 mg/kg
- oral activity [4]: active
- inhibition [2]: 85%
- ED50 ([2]; Cavia porcellus, po, read-out: Guinea Pig Broncho-constriction ID50): 51 mg/kg
- Guinea Pig Broncho-constriction % Inhibition (10 mg/kg i.v.) [2]: 85%
- oral activity [2]: active

SMILES: CCN(CC)CCOC(=O)c1cn2c(=O)c3cc(SC)ccc3nc2s1.Cl [Example 17, 7-(Methylthio)-5-oxo-5H-thiazolo[2,3-b]quinazoline-2-carboxylic acid (2-diethylaminoethyl) ester hydrochloride]
- Rat PCA Test (% Inhibition) 16 mg/kg ip [3]: 52%
- Rat PCA Test (% Inhibition) 32 mg/kg po [3]: 100%
- ED50 [3]: 2.85 mg/kg

- inhibition at 0.1 µM (TXA2 synthase): 73%
SMILES: CC(C)c1ccc2nc3sc(C(=O)NCCCCc4cccnc4)cn3c(=O)c2c1 [the 1st table, row 4, 7-(1-Methylethyl)-5-oxo-N-[4-(3-pyridinyl)butyl]-5H-thiazolo[2,3-b]quinazoline-2-carboxamide]

- inhibition at 0.1 µM (TXA2 synthase): 63%
SMILES: CC(C)c1cc(C(C)C)c2nc3sc(C(=O)NCCCCc4cccnc4)cn3c(=O)c2c1 [the 1st table, row 5, 7,9-bis(1-methylethyl)-5-oxo-N-[4-(3-pyridinyl)butyl]-5H-thiazolo[2,3-b]quinazoline-2-carboxamide]

SMILES: CC(C)c1cc(C(C)C)c2nc3sc(C(=O)NCCCCc4cccnc4)cn3c(=O)c2c1 [the 2nd table, row 8, 7,9-bis(1-methylethyl)-5-oxo-N-[4-(3-pyridinyl)butyl]-5H-thiazolo[2,3-b]quinazoline-2-carboxamide]
- Rat Skin Permeability % Inhibition (10mg/kg iv) [1]: 38%
